In PMC2263054, “Functional evolution of the vitamin D and pregnane X receptors” (BMC Evolutionary Biology, 2007):

Assays:
[1] = tested on: zebrafish PXR; conditions: luciferase reporter in HepG2 cells, normalized to 20 μM androstanol
[2] = tested on: EROD activity; assay: EROD assay in African clawed frog primary hepatocytes; format: cell-based, Xenopus laevis; conditions: 48 hour exposure
Description: Xenopus laevis primary hepatocytes were cultured by a protocol adapted from a published report. Frogs are sacrificed with MS-222, rinsed with 70% ethanol, and the liver lobes perfused via the heart, initially with 375 mL Barth (88 mM NaCl, 1 mM K2SO4, and 10 mM HEPES-NaOH, pH 7.4) containing 0.82 mM MgCl2 and 0.1 mg/mL heparin, and then with 25 mL Barth containing 2.22 mM Ca(NO3)2, 2.74 mM CaCl2, and 200 U/mL type I collagenase (Worthington Chemicals, Lakewood, NJ). Livers are minced to fine pieces in 12.5 mL Barth-collagenase solution and then incubated for 10 min at room temperature, periodically disaggregating the liver pieces with a Pasteur pipette. The liver cells are then placed on a shaking incubator for 5 min at room temperature, followed by another 10 min of periodic pipetting to complete disaggregation. Cells are then filtered through a 130 μm Nitex nylon mesh (Fisher Scientific), following by spinning at 500 g for 5 min at 4°C. The supernatant is then aspirated and diluted to 50 mL with Barth plus MgCl2 and then allowed to settle while cooled in ice for 30 min. The supernatant is removed, and the cellular pellet is resuspended and subjected to one more round of nylon mesh filtration, dilution in Barth plus MgCl2, and settling while cooled in ice. […]

[3] = tested on: flurbiprofen 4-hydroxylation activity (CYP2C-like activity); conditions: zebrafish primary hepatocytes, 48-hour exposure; TCDD 1 nM, androstanol 200 μM
[4] = target: T1, Zebrafish VDR (Danio rerio, UniProt Q9PTN2); assay: luciferase reporter transactivation assay in HepG2-NTCP cells, GAL4/zfVDR LBD chimera with tk-UAS-Luc; format: cell-based; conditions: for Zebrafish VDR EC50 ± SD: HepG2-NTCP cells, luciferase reporter, unit not given, also cells saying No effect
T1 sequence (Q9PTN2 121-453): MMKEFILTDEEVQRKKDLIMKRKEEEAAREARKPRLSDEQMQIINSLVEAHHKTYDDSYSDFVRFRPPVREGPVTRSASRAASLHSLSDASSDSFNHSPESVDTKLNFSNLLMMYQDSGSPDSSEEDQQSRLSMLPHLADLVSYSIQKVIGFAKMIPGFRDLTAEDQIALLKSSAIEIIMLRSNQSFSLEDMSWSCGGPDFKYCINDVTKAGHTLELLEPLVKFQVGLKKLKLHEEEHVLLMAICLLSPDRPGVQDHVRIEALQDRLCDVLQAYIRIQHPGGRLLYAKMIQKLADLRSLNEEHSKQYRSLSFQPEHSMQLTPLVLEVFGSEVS

[5] = tested on: testosterone 6β-hydroxylation; assay: testosterone hydroxylation (HPLC) in sea lamprey primary hepatocytes; format: cell-based; conditions: concentration ranges per compound
Description: (§1) 100 μL of sample, calibration standard, or quality material standard were pipetted into separate microcentrifuge tubes and mixed with 100 μL of methanol. Samples were vortexed and centrifuged at 13,000 rpm for 4 min. The supernatant was then injected into the HPLC.
(§2) The flow rate was 1.2 mL/min and total run time was 25 min.

[6] = tested on: ethoxyresorufin O-deethylase (EROD) activity (CYP1A-like activity); assay: EROD assay in zebrafish primary hepatocytes; conditions: for maximal rate of EROD activity: zebrafish primary hepatocytes, 24 hour exposure (Figure 3 legend: 48-hour)
Description: (§3) The cells are cultured at 26°C in ambient atmosphere.

[7] = target: T2, Sea lamprey VDR (Petromyzon marinus, UniProt Q7ZZY9); format: cell-based; conditions: for Sea lamprey VDR EC50 ± SD: HepG2-NTCP cells, luciferase reporter, unit not given, also cells saying No effect
T2 sequence (Q7ZZY9 92-406): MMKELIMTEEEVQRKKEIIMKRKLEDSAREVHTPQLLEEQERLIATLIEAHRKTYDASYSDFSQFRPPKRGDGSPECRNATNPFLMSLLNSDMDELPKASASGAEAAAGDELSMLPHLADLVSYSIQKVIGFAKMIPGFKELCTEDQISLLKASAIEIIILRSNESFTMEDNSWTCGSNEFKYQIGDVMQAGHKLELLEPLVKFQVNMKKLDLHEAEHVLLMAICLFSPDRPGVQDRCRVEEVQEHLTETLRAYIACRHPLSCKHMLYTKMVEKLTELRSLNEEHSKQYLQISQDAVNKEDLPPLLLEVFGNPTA

[8] = target: T3, Mouse VDR (Mus musculus, UniProt P48281); assay: luciferase reporter transactivation assay in HepG2-NTCP cells, full-length mVDR with CYP3A4-PXRE-Luc; conditions: HepG2-NTCP cells, luciferase reporter; unit not given; also cells saying No effect
T3 sequence (P48281 1-422): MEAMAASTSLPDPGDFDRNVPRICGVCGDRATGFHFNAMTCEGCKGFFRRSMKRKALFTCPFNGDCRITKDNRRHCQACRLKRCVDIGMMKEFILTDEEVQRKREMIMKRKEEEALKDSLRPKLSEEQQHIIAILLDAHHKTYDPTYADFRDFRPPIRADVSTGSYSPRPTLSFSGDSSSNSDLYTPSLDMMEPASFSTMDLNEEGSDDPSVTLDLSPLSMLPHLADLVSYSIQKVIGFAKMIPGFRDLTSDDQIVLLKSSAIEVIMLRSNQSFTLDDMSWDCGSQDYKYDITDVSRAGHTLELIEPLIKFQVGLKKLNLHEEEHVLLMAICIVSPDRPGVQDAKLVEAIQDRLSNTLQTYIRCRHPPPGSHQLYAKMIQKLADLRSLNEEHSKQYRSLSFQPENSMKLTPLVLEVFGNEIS

[9] = target: T4, Xenopus laevis VDR (Xenopus laevis, UniProt O13124); assay: luciferase reporter transactivation assay in HepG2-NTCP cells, GAL4/xlVDR LBD chimera with tk-UAS-Luc; format: cell-based; conditions: for Xenopus VDR EC50 ± SD: HepG2-NTCP cells, luciferase reporter, unit not given, also cells saying No effect
T4 sequence (O13124 90-422): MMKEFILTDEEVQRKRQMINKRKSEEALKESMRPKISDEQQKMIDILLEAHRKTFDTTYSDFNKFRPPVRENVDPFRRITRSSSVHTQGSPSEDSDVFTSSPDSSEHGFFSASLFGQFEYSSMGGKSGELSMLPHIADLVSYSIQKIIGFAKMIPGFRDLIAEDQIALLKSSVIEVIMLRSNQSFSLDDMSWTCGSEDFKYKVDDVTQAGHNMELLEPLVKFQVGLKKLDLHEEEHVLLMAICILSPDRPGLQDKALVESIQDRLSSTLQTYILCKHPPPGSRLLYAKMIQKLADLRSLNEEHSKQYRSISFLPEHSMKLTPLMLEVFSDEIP

[10] = tested on: 6β- and 12α-hydroxylation of testosterone; assay: testosterone hydroxylation (HPLC) in African clawed frog primary hepatocytes; format: cell-based, Xenopus laevis; conditions: relative to vehicle control
Description: Xenopus laevis primary hepatocytes were cultured by a protocol adapted from a published report. Frogs are sacrificed with MS-222, rinsed with 70% ethanol, and the liver lobes perfused via the heart, initially with 375 mL Barth (88 mM NaCl, 1 mM K2SO4, and 10 mM HEPES-NaOH, pH 7.4) containing 0.82 mM MgCl2 and 0.1 mg/mL heparin, and then with 25 mL Barth containing 2.22 mM Ca(NO3)2, 2.74 mM CaCl2, and 200 U/mL type I collagenase (Worthington Chemicals, Lakewood, NJ). Livers are minced to fine pieces in 12.5 mL Barth-collagenase solution and then incubated for 10 min at room temperature, periodically disaggregating the liver pieces with a Pasteur pipette. The liver cells are then placed on a shaking incubator for 5 min at room temperature, followed by another 10 min of periodic pipetting to complete disaggregation. Cells are then filtered through a 130 μm Nitex nylon mesh (Fisher Scientific), following by spinning at 500 g for 5 min at 4°C. The supernatant is then aspirated and diluted to 50 mL with Barth plus MgCl2 and then allowed to settle while cooled in ice for 30 min. The supernatant is removed, and the cellular pellet is resuspended and subjected to one more round of nylon mesh filtration, dilution in Barth plus MgCl2, and settling while cooled in ice. The supernatant is removed and the remaining cells are washed once with Barth plus MgCl2 and then centrifuged at 500 g for 5 min at 4°C. The cells are then resuspended in 0.6 × Coon's Modified Ham's F-12 medium (Invitrogen) supplemented with 0.1 × Barth (88 mM NaCl, 1 mM K2SO4, 10 mM HEPES), 200 U/mL penicillin G, 100 μg/mL streptomycin sulfate, 2 mM glutamine, 0.2% glucose, and 10 μg/mL bovine insulin (Calbiochem), with the final pH adjusted to 7.5. […] Cells are cultured at 20°C in ambient atmosphere.
Testosterone metabolites were identified and quantitated by HPLC. […] The supernatant was then injected into the HPLC.

[11] = tested on: EROD activity; assay: EROD assay in sea lamprey primary hepatocytes; conditions: 24–48 hr exposure
[12] = tested on: testosterone 6β-hydroxylation activity (CYP3A-like activity); assay: testosterone hydroxylation (HPLC) in zebrafish primary hepatocytes
Description: as §3, §1, §2

[13] = target: T5, Human VDR (Homo sapiens, UniProt P11473); assay: luciferase reporter transactivation assay in HepG2-NTCP cells, full-length hVDR with CYP3A4-PXRE-Luc; conditions: HepG2-NTCP cells, luciferase reporter; unit not given; also cells saying No effect
T5 sequence (P11473 1-427): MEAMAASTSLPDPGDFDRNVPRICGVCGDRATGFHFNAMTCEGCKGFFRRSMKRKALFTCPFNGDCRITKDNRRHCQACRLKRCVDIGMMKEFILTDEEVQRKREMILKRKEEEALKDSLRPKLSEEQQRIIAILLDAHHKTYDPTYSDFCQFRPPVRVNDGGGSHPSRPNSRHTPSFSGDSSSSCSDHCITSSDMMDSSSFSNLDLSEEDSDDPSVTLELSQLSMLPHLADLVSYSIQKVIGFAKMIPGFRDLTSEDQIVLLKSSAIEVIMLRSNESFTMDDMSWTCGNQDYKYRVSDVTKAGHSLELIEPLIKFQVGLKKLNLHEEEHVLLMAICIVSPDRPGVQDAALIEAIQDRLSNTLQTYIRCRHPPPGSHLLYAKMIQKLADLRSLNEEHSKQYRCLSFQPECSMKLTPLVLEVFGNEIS

[14] = tested on: Ciona VDR/PXR
[15] = tested on: Flurbiprofen 4-hydroxylation; assay: flurbiprofen hydroxylation assay in sea lamprey primary hepatocytes; format: cell-based; conditions: 48 hour treatment, 5α-petromyzonol 20 μM, 3-MC 5 μM, basal 2.8
[16] = screening for activators, at least three concentrations of each drug

Clc1cc2c(cc1Cl)Oc1cc(Cl)c(Cl)cc1O2 [2,3,7,8-Tetrachlorodibenzo-p-dioxin, 2,3,7,8-tetrachlorodibenzo-p-dioxin]
activation of recombinant zebrafish PXR [1]: all activate recombinant zebrafish PXR | maximal rate of EROD activity [2]: 9.8 pmol/min/mg protein | EC50 ([2]; Xenopus laevis, Hepatocyte, read-out: EC50 for increase of EROD activity): 6.5 ± 0.77 nM | effect on flurbiprofen 4-hydroxylation activity [3]: Lesser increases relative to vehicle control | Zebrafish VDR EC50 ± SD [4]: No effect | effect on testosterone 6β-hydroxylation [5]: None of these compounds produced significant increases in testosterone 6β-hydroxylation | maximal rate of EROD activity [6]: 33.0 pmol/min/mg protein | EC50 at 24 h ([6]; zebrafish, pH 7.8): 0.15 ± 0.022 nM | Sea lamprey VDR EC50 ± SD [7]: No effect | Mouse VDR EC50 ± SD [8]: No effect | Xenopus VDR EC50 ± SD [9]: No effect | effect on 6β- and 12α-hydroxylation of testosterone [10]: neither activity was substantially increased relative to vehicle control | effect on EROD activity [11]: did not alter EROD activity | EC50 at 48 h ([12]; zebrafish): 0.154 ± 0.03 nM | maximal rate of testosterone 6β-hydroxylation ([12]; zebrafish primary hepatocytes, 48-hour exposure): 2830 pmol/min/mg protein | Human VDR EC50 ± SD [13]: No effect | Ciona VDR/PXR relative efficacy ([14]; relative to maximal reference compound (20 μM 6-formylindolo-[3,2-b]-carbazole, efficacy = 1.0)): 1.80 | activation of ciVDR/PXR ([14]; unpublished data of the authors): activated

C[C@H](CCCO)[C@H]1CC[C@H]2[C@@H]3[C@H](O)C[C@H]4C[C@H](O)CC[C@]4(C)[C@H]3C[C@H](O)[C@]12C [5α-Petromyzonol, 5α-cholan-3α,7α,12α,24-tetrol]
Zebrafish VDR EC50 ± SD [4]: No effect | effect on testosterone 6β-hydroxylation [5]: None of these compounds produced significant increases in testosterone 6β-hydroxylation | Sea lamprey VDR EC50 ± SD [7]: No effect | Mouse VDR EC50 ± SD [8]: No effect | Flurbiprofen 4-hydroxylation activity [15]: 0.21 nmol/min/mg protein | Xenopus VDR EC50 ± SD [9]: No effect | effect on EROD activity [11]: did not alter EROD activity | Human VDR EC50 ± SD [13]: No effect | Ciona VDR/PXR EC50 ± SD ([14]; HepG2-NTCP cells, luciferase reporter, unit not given, also cells saying No effect): No effect

Cc1ccc2cc3c(ccc4ccccc43)c3c2c1CC3 [3-Methylcholanthrene]
Effect on zebrafish VDR [4, 16]: No effect | effect on testosterone 6β-hydroxylation [5]: None of these compounds produced significant increases in testosterone 6β-hydroxylation | maximal rate of EROD activity [6]: 28.1 pmol/min/mg protein | EC50 ([6]; zebrafish, pH 7.8): 373 ± 22 nM | Effect on sea lamprey VDR [7, 16]: No effect | Flurbiprofen 4-hydroxylation activity [15]: 0.33 nmol/min/mg protein | Effect on Xenopus laevis VDR [9, 16]: No effect | effect on EROD activity [11]: did not alter EROD activity
